This note sets out measurements from patent US10898540B2, “Peptide having effects of increasing telomerase activity and extending telomere, and composition containing same” (GEMVAX & KAEL CO., LTD., priority 2016, dated 2021).

One experiment concerns telomerase. The experiment is described as follows: Telomerase activity (TeloTAGGG telomerase PCR ELISA, RTA) in brain tissue of 3xTg-AD mice after subcutaneous administration. The experiment is classed as in vivo, mouse. As to conditions: for increase of telomerase activity compared with saline-administered group (Group 1): s.c. three times a week for 2 months, whole brain tissue at age 15 months. From the text:
(§1) To test the PEP1 therapeutic effect on Alzheimer's disease, Alzheimer transgenic mice (3×Tg-AD) were purchased from Jackson Laboratory.
(§2) To investigate the effect of PEP1 according to concentration after breeding, experimental animals were divided and then administered experimental materials as follows. As a positive control material, donepezil was used, the experimental animals were divided into five groups, and each group included 10 mice. Administered materials and doses per group are as follows. • Group 1: Saline • Group 2: 0.01 mg/kg ofPEP1 • Group 3: 0.1 mg/kg of PEP1 • Group 4: 1 mg/kg of PEP1 • Group 5: 1 mg/kg of donepezil
PEP1, saline and donepezil were subcutaneously injected at each concentration three times a week for 2 months from the 12th month, one month later (at the age of 15 months), the mice (10 mice per group) were anesthetized, and reperfusion was carried out through the heart of each mouse using 0.9% saline to remove blood. Afterward, the brain was extracted, and separated into the hippocampus and the whole brain area, thereby obtaining brain tissue, and the tissue was rapidly frozen using liquid nitrogen.
To investigate PEP1-induced telomerase activity, TeloTAGGG telomerase PCR ELISAPLUS (Cat #12 013 789 001, Roche Boehringer-Mannheim, IN, USA) was used, the entire brain tissues prepared according to the method of Example 2-1 were pulverized, 200 μl of an ice-cold lysis buffer was added to […] of the tissue, incubated on ice for 30 minutes, and centrifuged at 16,000×g for 20 minutes to isolate 175 μl of a protein. 10 μg of the protein was quantified and mixed with a reaction mixture and an internal standard, followed by PCR (see FIG. 4). Hybridization was carried out, a sample was added to a specially-coated MP module to perform a reaction, and then absorbance was measured at 450 or 690 nm using an ELISA reader. Relative telomerase activities (RTAs) were calculated using a calculation formula (see FIG. 3).

Another experiment concerns telomere. The experiment is described as follows: Telomere length (TeloTAGGG telomere length assay, Southern blot) in brain tissue of 3xTg-AD mice after subcutaneous administration. The experiment is classed as in vivo, mouse. The note with it: 3xTg-AD mice, 0.01, 0.1 and 1 mg/kg s.c. three times a week for 2 months, whole brain tissue, FIG. 2.
Text: as §1, §2
PEP1, saline and donepezil were subcutaneously injected at each concentration three times a week for 2 months from the 12th month, one month later (at the age of 15 months), the mice (10 mice per group) were anesthetized, and reperfusion was carried out through the heart of each mouse using 0.9% saline to remove blood. Afterward, the brain was extracted, and separated into the hippocampus and the whole brain area, thereby obtaining brain tissue, and the tissue was rapidly frozen using liquid nitrogen. […]

Take “EARPALLTSRLRFIPK (hTERT derived peptide fragment) [PEP1, hTERT-derived peptide consisting of 16 amino acids, telomerase location [611-626], made by Fmoc solid phase synthesis]”: the entries for the “increase of telomerase activity compared with saline-administered group (Group 1)” value with telomerase (0.1 mg/kg (Group 3)) and in the experiment on telomerase (Group 4 (dose printed as 'mg/kg'; Group 4 = 1 mg/kg)) were 266% and 370%, respectively. The “telomerase activity compared with donepezil-administered group (Group 5)” value in the experiment with telomerase (Group 4 vs donepezil Group 5, s.c. three times a week for 2 months, FIG. 1) is given as “statistically significant increase”. Moreover, the telomere length entry in the experiment on telomere was “increased according to PEP1 administration concentration”.
